Laboratory results as given in ChEMBL document CHEMBL1143998, “Binding to human serum albumin of zidovudine (AZT) and novel AZT derivatives. Experimental and theoretical analyses” (Bioorg Med Chem, 2008).

How the values were obtained:
Type in all cases: ADME
Conditions in all cases: isolated protein
[1] = target: T1, Albumin (Homo sapiens, UniProt P02768); assay: Binding affinity to defatted human serum albumin in presence of salicylic acid
[2] = target: T1, Albumin; assay: Binding affinity to defatted human serum albumin
[3] = target: T1, Albumin; assay: Binding affinity to fatty acid complexed human serum albumin
[4] = target: T1, Albumin; assay: Binding affinity to defatted human serum albumin relative to zidovudine

T1 sequence (P02768 whole entry): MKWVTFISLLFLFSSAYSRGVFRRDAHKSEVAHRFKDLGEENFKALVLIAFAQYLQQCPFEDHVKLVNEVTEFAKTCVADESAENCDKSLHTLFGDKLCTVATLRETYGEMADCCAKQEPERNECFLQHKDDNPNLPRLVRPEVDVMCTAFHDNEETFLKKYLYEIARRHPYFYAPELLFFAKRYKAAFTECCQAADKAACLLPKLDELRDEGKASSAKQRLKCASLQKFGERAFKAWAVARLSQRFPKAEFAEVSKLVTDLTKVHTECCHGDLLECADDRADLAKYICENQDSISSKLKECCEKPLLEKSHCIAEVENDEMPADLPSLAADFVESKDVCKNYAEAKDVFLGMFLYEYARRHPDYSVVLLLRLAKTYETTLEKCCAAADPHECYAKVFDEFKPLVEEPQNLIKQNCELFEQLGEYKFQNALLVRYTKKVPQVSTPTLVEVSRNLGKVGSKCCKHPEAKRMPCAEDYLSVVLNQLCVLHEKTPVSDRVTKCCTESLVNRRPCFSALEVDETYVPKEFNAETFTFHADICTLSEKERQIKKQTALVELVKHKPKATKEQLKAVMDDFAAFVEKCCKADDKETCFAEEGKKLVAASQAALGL

Structure (SMILES)	Activity [1] [%]	Ka [1] [L/mol]	Activity [2] [%]	Ka [2] [L/mol]	Activity [3] [%]	Ka [3] [L/mol]	Activity [4]
Cc1cn([C@H]2C[C@H](N=[N+]=[N-])[C@@H](COC(=O)C(=O)O)O2)c(=O)[nH]c1=O	7	604.5	47	6201.3	10.4	811.7	5.93
Cc1cn([C@H]2C[C@H](N=[N+]=[N-])[C@@H](COC(=O)C(=O)N3CCC[C@H]3C(=O)O)O2)c(=O)[nH]c1=O	9.4	811.7	11.9	944.6	16.1	1341.9	0.9
Cc1cn([C@H]2C[C@H](N=[N+]=[N-])[C@@H](COC(=O)c3ccncc3)O2)c(=O)[nH]c1=O	–	–	19.8	1709.8	38.8	3277.3	1.64
Cc1cn([C@H]2C[C@H](N=[N+]=[N-])[C@@H](COC(=O)C(=O)N[C@@H](Cc3ccc(O)cc3)C(=O)O)O2)c(=O)[nH]c1=O	9.4	811.7	14.9	1224.4	10.4	890.9	1.17
Cc1cn([C@H]2C[C@H](N=[N+]=[N-])[C@@H](COC(=O)C(=O)N[C@H](C(=O)O)C(C)C)O2)c(=O)[nH]c1=O	15.2	1312.6	17.4	1535	11.9	944.6	1.47
Cc1cn([C@H]2C[C@H](N=[N+]=[N-])[C@@H](COC(=O)C(=O)N[C@@H](Cc3c[nH]c4ccccc34)C(=O)O)O2)c(=O)[nH]c1=O	17.6	1519.8	20.5	1803.2	23.7	2172.1	1.73
Cc1cn([C@H]2C[C@H](N=[N+]=[N-])[C@@H](COC(=O)C(=O)N[C@@H](Cc3ccccc3)C(=O)O)O2)c(=O)[nH]c1=O	8.3	716.7	13.6	1174.4	5.5	436.6	1.12
CC[C@H](C)[C@H](NC(=O)C(=O)OC[C@H]1O[C@@H](n2cc(C)c(=O)[nH]c2=O)C[C@@H]1N=[N+]=[N-])C(=O)O	4.6	397.2	35.2	3765.4	7.6	575.2	3.6
Cc1cn([C@H]2C[C@H](N=[N+]=[N-])[C@@H](COC(=O)C(=O)N[C@@H](CC(C)C)C(=O)O)O2)c(=O)[nH]c1=O	5.2	449	26.5	2457	8.9	683.2	2.35
